According to ChEMBL document CHEMBL4840359, “N-Terminus to Arginine Side-Chain Cyclization of Linear Peptidic Neuropeptide Y Y4 Receptor Ligands Results in Picomolar Binding Constants” (J Med Chem, 2021):
Activity calls are given as the source filed them. No cut-off for these calls is given here. Starred links: 1 amine or outer side, 2 acyl side, 3 side chain; linkers in the order of their positions; H or OH if unused. Residues, ends and D or L forms follow the SMILES beside them. Groups on a side chain read outwards from the residue. *: point of attachment. Suc = O=C(CCC(=O)[*:2])[*:1]; CO = O=C([*:1])[*:2]; NH(CH2)3NH2 = NCCCN*

Key:
[1] = target: T1, Neuropeptide Y receptor type 4 (Homo sapiens, UniProt P50391); assay: Displacement of [3H]UR-KK200 from human neuropeptide Y Y4 receptor expressed in CHO-mtAEQ cells co-expressing Gqi5 measured after 90 mins by scintillation counting analysis; type: cell-based
T1 sequence (P50391 whole entry): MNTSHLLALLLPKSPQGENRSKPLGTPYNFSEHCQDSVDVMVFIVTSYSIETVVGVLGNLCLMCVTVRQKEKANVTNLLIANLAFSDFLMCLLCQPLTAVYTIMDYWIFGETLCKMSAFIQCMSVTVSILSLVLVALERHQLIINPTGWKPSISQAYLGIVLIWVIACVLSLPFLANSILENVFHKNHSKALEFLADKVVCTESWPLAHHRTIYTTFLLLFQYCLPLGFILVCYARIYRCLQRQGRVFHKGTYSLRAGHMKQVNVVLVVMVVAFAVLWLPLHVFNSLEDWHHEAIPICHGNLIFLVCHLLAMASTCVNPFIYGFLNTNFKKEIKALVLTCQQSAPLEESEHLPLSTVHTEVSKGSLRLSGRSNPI

[2] = target: T1, Neuropeptide Y receptor type 4; assay: Displacement of [3H]UR-KK200 from human neuropeptide Y Y4 receptor expressed in CHO-mtAEQ cells co-expressing Gqi5 assessed as fold change in affinity measured after 90 mins by scintillation counting analysis relative to Ac-Arg-Tyr-Arg-Leu-Arg-Tyr-NH2; type: cell-based; settings: filed as agonist
[3] = target: T2, Neuropeptide Y receptor type 1 (Homo sapiens, UniProt P25929); assay: Displacement of [3H]UR-MK299 from human neuropeptide Y Y1 receptor in human SK-N-MC cells measured after 90 mins by scintillation counting analysis; type: cell-based
T2 sequence (P25929 whole entry): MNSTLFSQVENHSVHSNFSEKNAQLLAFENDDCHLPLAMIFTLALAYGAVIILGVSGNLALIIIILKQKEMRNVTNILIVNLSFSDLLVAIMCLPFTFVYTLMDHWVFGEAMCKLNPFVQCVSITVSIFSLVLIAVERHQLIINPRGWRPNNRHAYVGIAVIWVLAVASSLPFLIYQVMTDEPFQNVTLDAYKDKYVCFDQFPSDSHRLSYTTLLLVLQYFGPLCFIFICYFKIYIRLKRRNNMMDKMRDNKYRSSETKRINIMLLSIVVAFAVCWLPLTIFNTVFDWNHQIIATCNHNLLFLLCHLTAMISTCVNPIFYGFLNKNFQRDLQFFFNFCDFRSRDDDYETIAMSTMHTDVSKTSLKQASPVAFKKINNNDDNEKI

[4] = target: T3, Neuropeptide Y receptor type 2 (Homo sapiens, UniProt P49146); assay: Displacement of [3H]UR-MK299 from human neuropeptide Y Y2 receptor expressed in CHO cells measured after 90 mins by scintillation counting analysis; type: cell-based
T3 sequence (P49146 whole entry): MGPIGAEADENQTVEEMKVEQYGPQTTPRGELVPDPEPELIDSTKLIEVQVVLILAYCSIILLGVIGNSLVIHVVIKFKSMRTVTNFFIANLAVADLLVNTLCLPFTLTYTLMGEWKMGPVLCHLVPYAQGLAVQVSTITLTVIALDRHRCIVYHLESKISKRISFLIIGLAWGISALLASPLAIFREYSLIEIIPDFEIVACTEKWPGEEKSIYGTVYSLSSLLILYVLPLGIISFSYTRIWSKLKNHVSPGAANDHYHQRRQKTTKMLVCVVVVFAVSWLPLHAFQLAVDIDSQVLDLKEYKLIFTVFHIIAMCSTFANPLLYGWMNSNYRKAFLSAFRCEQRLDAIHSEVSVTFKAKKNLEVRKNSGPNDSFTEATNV

[5] = target: T4, Neuropeptide Y receptor type 5 (Homo sapiens, UniProt Q15761); assay: Displacement of [3H]propionyl-pNPY from human neuropeptide Y Y5 receptor in human HEC-1B cells measured after 90 mins by scintillation counting analysis; type: cell-based, HEC-1B cell line
T4 sequence (Q15761 whole entry): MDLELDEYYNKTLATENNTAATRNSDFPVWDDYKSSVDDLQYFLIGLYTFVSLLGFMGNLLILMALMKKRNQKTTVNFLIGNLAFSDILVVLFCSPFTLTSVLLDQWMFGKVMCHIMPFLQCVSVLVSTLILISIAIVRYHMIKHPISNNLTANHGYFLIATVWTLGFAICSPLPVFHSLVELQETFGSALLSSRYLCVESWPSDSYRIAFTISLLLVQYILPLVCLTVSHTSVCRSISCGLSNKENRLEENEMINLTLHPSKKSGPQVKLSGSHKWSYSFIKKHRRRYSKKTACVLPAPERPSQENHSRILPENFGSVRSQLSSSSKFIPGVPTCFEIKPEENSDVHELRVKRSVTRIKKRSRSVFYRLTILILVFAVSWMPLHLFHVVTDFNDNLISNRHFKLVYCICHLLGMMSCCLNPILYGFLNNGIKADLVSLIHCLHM

[6] = organism: Homo sapiens; assay: (§1) Selectivity ratio, Ki for displacement of [3H]UR-MK299 from human neuropeptide Y Y1 receptor in human SK-N-MC cells measured after 90 mins by scintillation counting analysis to Ki for displacement of [3H]UR-KK200 from human neuropeptide Y Y4 receptor expressed in CHO-mtAEQ cells co-expressing Gqi5 measured after 90 mins by scintillation counting analysis; type: cell-based
[7] = organism: Homo sapiens; assay: Selectivity ratio, Ki for displacement of [3H]UR-MK299 from human neuropeptide Y Y2 receptor expressed in CHO cells measured after 90 mins by scintillation counting analysis to Ki for displacement of [3H]UR-KK200 from human neuropeptide Y Y4 receptor expressed in CHO-mtAEQ cells co-expressing Gqi5 measured after 90 mins by scintillation counting analysis; type: cell-based
[8] = organism: Homo sapiens; assay: as §1, with “[3H]propionyl-pNPY” for “[3H]UR-MK299”, “Y5” for “Y1”, “HEC-1B” for “SK-N-MC”; type: cell-based
[9] = target: T1, Neuropeptide Y receptor type 4; assay: Agonist activity at human neuropeptide Y Y4 receptor expressed in HEK293T-ARRB1 cells assessed as stimulation of beta-arrestin 1 recruitment by multimode plate reader; type: functional, cell-based
[10] = target: T1, Neuropeptide Y receptor type 4; assay: Intrinsic activity at human neuropeptide Y Y4 receptor expressed in HEK293T-ARRB1 cells assessed as stimulation of beta-arrestin 1 recruitment by multimode plate reader relative to hPP; type: functional, cell-based
[11] = target: T1, Neuropeptide Y receptor type 4; assay: Agonist activity at human neuropeptide Y Y4 receptor expressed in HEK293T-ARRB2 cells assessed as stimulation of beta-arrestin 2 recruitment by multimode plate reader; type: functional, cell-based
[12] = target: T1, Neuropeptide Y receptor type 4; assay: Intrinsic activity at human neuropeptide Y Y4 receptor expressed in HEK293T-ARRB2 cells assessed as stimulation of beta-arrestin 2 recruitment by multimode plate reader relative to hPP; type: functional, cell-based
[13] = target: T1, Neuropeptide Y receptor type 4; assay: Agonist activity at human neuropeptide Y Y4 receptor expressed in CHO-mtAEQ cells co-expressing Gqi5 by calcium aequorin assay; type: functional, cell-based
[14] = target: T1, Neuropeptide Y receptor type 4; assay: Intrinsic activity at human neuropeptide Y Y4 receptor expressed in CHO-mtAEQ cells co-expressing Gqi5 by calcium aequorin assay; type: functional, cell-based
[15] = Stability in human plasma assessed as intact peptide measured after 30 mins at 37 degC by RP-HPLC analysis; type: ADME, cell-free; settings: read-out: Stability
[16] = Stability in human plasma assessed as intact peptide measured after 1 hr at 37 degC by RP-HPLC analysis; type: ADME, cell-free; settings: read-out: Stability
[17] = Stability in human plasma assessed as intact peptide measured after 2 hr at 37 degC by RP-HPLC analysis; type: ADME, cell-free; settings: read-out: Stability
[18] = Stability in human plasma assessed as intact peptide measured after 6 hr at 37 degC by RP-HPLC analysis; type: ADME, cell-free; settings: read-out: Stability
[19] = Stability in human plasma assessed as half life at 37 degC by RP-HPLC analysis; type: ADME, cell-free

Compound	Ki ([1]; read-out: Ki) [nM]	Ki ([1]; read-out: pKi (converted)) [nM]	fold change (FC) [2]	Ki ([3]; read-out: Ki) [nM]	Ki ([3]; read-out: pKi (converted)) [nM]	Ki ([4]; read-out: Ki) [nM]	Ki ([4]; read-out: pKi (converted)) [nM]	Ki ([5]; read-out: Ki) [nM]	Ki ([5]; read-out: pKi (converted)) [nM]	Selectivity ratio [6]	Selectivity ratio [7]	Selectivity ratio [8]	Intrinsic activity [10]	EC50 [11] [nM]	Intrinsic activity [12]	EC50 [13] [nM]	Intrinsic activity [14]	Ki ([5]; hec-1b cell line, read-out: Ki) [nM]	EC50 ([9]; read-out: EC50) [nM]	also measured
CC(C)C[C@H](NC(=O)[C@@H]1CCC(=O)NCC(=O)N[C@H](CCCNC(=N)N)C(=O)N[C@@H](CCCNC(=N)N)C(=O)N1)C(=O)N[C@@H](CCCNC(=N)N)C(=O)N[C@@H](Cc1ccc(O)cc1)C(N)=O	30	28.8	-8.8	> 3000	> 3160	> 3000	> 3160	> 3000	> 3160	> 100	> 100	> 100	inactive	> 10000	inactive	> 10000	inactive			EC50 ([9]; read-out: pEC50 (converted)): > 10000 nM
N=C(N)NCCC[C@@H]1NC(=O)CCC(=O)NCCCNC(=O)NC(=N)NCCC[C@@H](C(=O)N[C@@H](Cc2c[nH]c3ccccc23)C(=O)N[C@@H](CCCNC(=N)N)C(=O)N[C@@H](Cc2ccc(O)cc2)C(N)=O)NC(=O)[C@H](Cc2ccc(O)cc2)NC1=O (HELM PEPTIDE1{R.Y.[N=C(NCCC[C@H](N[*:1])C(=O)[*:2])N[*:3]].W.R.Y.[am]}|CHEM1{[O=C(CCC(=O)[*:1])NCCCNC(=O)[*:2]]}$PEPTIDE1,CHEM1,1:R1-1:R1|PEPTIDE1,CHEM1,3:R3-1:R2$$$V2.0)	28	28.8	-8.2		> 10000	> 10000	> 10000		> 10000	> 350	> 350	> 350	35%	355	47%	380	45%	> 10000	520	
CC(C)C[C@H](NC(=O)[C@H](CCCNC(=N)N)NC(=O)[C@@H]1CCC(=O)N[C@@H](CCCNC(=N)N)C(=O)NCC(=O)N[C@@H](Cc2ccc(O)cc2)C(=O)N1)C(=O)N[C@@H](CCCNC(=N)N)C(=O)N[C@@H](Cc1ccc(O)cc1)C(N)=O (HELM PEPTIDE1{R.G.Y.E.R.L.R.Y.[am]}$PEPTIDE1,PEPTIDE1,1:R1-4:R3$$$V2.0)	2.5		1.4	760	457	> 10000	> 10000	> 3000	> 3160	300	> 4000	> 1200	64%	178	74%	676	48%		290	
N=C(N)NCCC[C@@H]1NC(=O)CCC(=O)NCCCCNC(=O)NC(=N)NCCC[C@@H](C(=O)N[C@@H](Cc2c[nH]c3ccccc23)C(=O)N[C@@H](CCCNC(=N)N)C(=O)N[C@@H](Cc2ccc(O)cc2)C(N)=O)NC(=O)[C@H](Cc2ccc(O)cc2)NC1=O (HELM PEPTIDE1{R.Y.[N=C(NCCC[C@H](N[*:1])C(=O)[*:2])N[*:3]].W.R.Y.[am]}|CHEM1{[O=C(CCC(=O)[*:1])NCCCCNC(=O)[*:2]]}$PEPTIDE1,CHEM1,1:R1-1:R1|PEPTIDE1,CHEM1,3:R3-1:R2$$$V2.0)	1.6		2.1	> 3000	> 10000	> 10000	> 10000		> 10000	> 1800	> 6200	> 6200	84%	95.5	83%	191	61%	> 10000	130	
CC(C)C[C@H](NC(=O)[C@H](CCCNC(=N)NC(=O)NCCCN)NC(=O)[C@H](Cc1ccc(O)cc1)NC(=O)[C@H](CCCNC(=N)N)NC(=O)CCC(=O)O)C(=O)N[C@@H](CCCNC(=N)N)C(=O)N[C@@H](Cc1ccc(O)cc1)C(N)=O	0.66	0.646	5.2		> 10000	> 10000	> 10000		> 10000	> 15000	> 15000	> 15000	61%	129	71%	178	65%	> 10000	50	
N=C(N)NCCC[C@H](NC(=O)CCC(=O)O)C(=O)N[C@@H](Cc1ccc(O)cc1)C(=O)N[C@@H](CCCNC(=N)NC(=O)NCCCN)C(=O)N[C@@H](Cc1c[nH]c2ccccc12)C(=O)N[C@@H](CCCNC(=N)N)C(=O)N[C@@H](Cc1ccc(O)cc1)C(N)=O (Suc-RYR([CO-NH(CH2)3NH2])WRY-NH2)	63	56.2	-19		> 10000	> 3000	> 3160	> 3000	> 3160	> 150	> 47	> 47	inactive	89.1	inactive	91.2	inactive			EC50 ([9]; read-out: pEC50 (converted)): 123 nM
CC(=O)N[C@@H](CCCNC(=N)N)C(=O)N[C@@H](Cc1ccc(O)cc1)C(=O)N[C@@H](CCCN/C(N)=N/C(=O)NCCCCN)C(=O)N[C@@H](CC(C)C)C(=O)N[C@@H](CCCNC(=N)N)C(=O)N[C@@H](Cc1ccc(O)cc1)C(N)=O (HELM PEPTIDE1{[ac].R.Y.[NCCCCNC(=O)/N=C(\N)NCCC[C@H](N[*:1])C(=O)[*:2]].L.R.Y.[am]}$$$$V2.0)																				remaining at 0.5 h [15]: > 99%; remaining at 1 h [16]: 77%; remaining at 2 h [17]: 38%; remaining at 6 h [18]: 9%; half-life [19]: 1.7 h
